# Assay results: patent US7947688B2, “N-[3-(3-substituted-pyrazolo[1,5-a]pyrimidin-7-yl)phenyl]-sulfonamides, and compositions, and methods related thereto” (Ferrer Internacional, S.A., priority 2003, dated 2011)
# Columns and labels:
# [1] = target: α2-GABAA receptor (Rattus norvegicus, UniProt P18508+P23576); test: Ligand-binding assay, radiolabeled flumazenil competition, rat spinal cord membranes; conditions: for inhibition at 10 µM: read-out: % Inhibition (10^−5 M), affinity for α2-GABAA receptor; for inhibition at 0.1 µM: read-out: % Inhibition (10^−7 M), affinity for α2-GABAA receptor
# Protocol: Determination of the affinity of test compounds for α1- and α2-GABAA receptor.
# Male Sprague-Dawley rats weighing 200-250 g at the time of experiment were used. After decapitation of the animal, the cerebellum (tissue that mostly contains α1-GABAA receptor) and spinal cord (tissue that mostly contains α2-GABAA receptor) were removed. The membranes were prepared according to the method by J. Lameh et al. (Prog. Neuro-Psychopharmacol. Biol. Psychiatry, 24, 979-991, 2000). Once the tissues weighed, they were suspended in 50 mM Tris.HCl (pH 7.7), 1:40 (v/v), homogenized and then centrifuged at 20000 g for 10 min at 7° C. The resulting pellet was resuspended under the same conditions and centrifuged again. The pellet was finally resuspended on a minimum volume and kept at −80° C. overnight. On the next day, the process was repeated until the final pellet was resuspended at a ratio of 1:10 (v/v).
# Affinity was determined by competitive tests using radiolabeled flumazenil as ligand. The tests were performed according to the methods described by S. Arbilla et al. (Eur. J. Pharmacol., 130, 257-263, 1986); and Y. Wu et al. (Eur. J. Pharmacol., 278, 125-132, 1995). The membranes containing the study receptors, flumazenil (radiolabeling at a final concentration of 1 nM) and ascending concentrations of test compounds (in a total volume of 500 μl in […] [ph 7.4] Tris.HCl buffer) were incubated. Simultaneously, the membranes were only incubated with the radiolabeled flumazenil (total binding, 100%) and in the presence of an elevated concentration of unradiolabeled flumazenil (non-specific binding, % estimation of radiolabeled ligand). The reactions started on adding the radiolabeled ligand followed by incubation for 60 minutes at 0° C. At the end of the incubation period, the tubes were filtered using a Brandel Mod. M-48R harvester and then washed three times with cold test buffer. The harvester was fitted with a GF/B filter that retained the membranes containing the receptors and the radiolabeled ligand which had been bound to the receptors. Then the filters were removed and left till dry. Once dried, the filters were cut, placed in vials with scintillation liquid and left under stirring overnight. The next day the filters were counted using a Packard Mod. Tricarb scintillation counter.
# X: amount of bound ligand for every concentration of compound.
# T: total binding, maximum amount bound to the radiolabeled ligand.
# N: non-specific binding, amount of radiolabeled ligand bound in a non-specific way irrespective of the receptor used.
# Every concentrations of compound were tested in duplicate and their mean values were used to determine the experimental values of % specific binding versus the concentration of compound. […] Inhibition constants (Ki) were calculated from the IC50 values according to Cheng-Prusoff's formula (Y. Cheng y W. H. Prusoff, Biochem. Pharmacol., 22(23), 3099-3108, 1973).
# [2] = system: male CD1 mice; test: Predictive sedation-hypnosis test in mice (motor activity, crossings); assay type: in vivo; conditions: single equimolecular intraperitoneal dose, crossings over 30 min after dosing (first 5 min discarded) versus control
# Protocol: • In vivo determination of predictive sedative-hypnotic action.
# The in vivo effects of these compounds were assessed by a predictive sedation-hypnosis test in mice (D. J. Sanger et al., Eur. J. Pharmacol., 313, 35-42, 1996; and G. Griebel et al., Psychopharmacology, 146, 205-213, 1999). Groups of 5-8 male CD1 mice, weighing 22-26 g at the time of test, were used. The test compounds were administered in single equimolecular intraperitoneal doses, suspended in 0.25% agar with one drop of Tween in a volume of 10 ml/kg. Control animals received the vehicle alone. Using an Actisystem DAS16 (Panlab, S. L., Spain) the crossings (number of counts) were recorded for each mouse at 5-min intervals during a period of 30 minutes after dosing. The inhibition percentage of crossings of treated animals versus control animals (the first 5 min were discarded) was calculated.
Structure (SMILES),inhibition at 10 µM [1] [%],inhibition at 0.1 µM [1] [%],% Motor Activity Inhibition [2] [%]
"CCN(c1cccc(-c2ccnc3c(C(=O)c4ccccc4)cnn23)c1)S(C)(=O)=O [Example 70, N-ethyl-N-{3-[3-(benzoyl)-pyrazolo[1,5-a]pyrimidin-7-yl]-phenyl}-methanesulfonamide]",99.9,63.4,94.54
"C#CCN(c1cccc(-c2ccnc3c(C(=O)c4ccc(C)cc4)cnn23)c1)S(C)(=O)=O [Example 68, N-2-propynyl-N-{3-[3-(4-methylbenzoyl)-pyrazolo[1,5-a]pyrimidin-7-yl]-phenyl}-methanesulfonamide]",92.7,31.6,87.78
"CCS(=O)(=O)N(C)c1cccc(-c2ccnc3c(C(=O)c4ccc(F)cc4)cnn23)c1 [Example 53, N-methyl-N-{3-[3-(fluorobenzene-4-carbonyl)-pyrazolo[1,5-a]pyrimidin-7-yl]-phenyl}-ethanesulfonamide]",89.8,1,94.89
"C=CS(=O)(=O)N(C)c1cccc(-c2ccnc3c(C(=O)c4cccs4)cnn23)c1 [Example 94, N-methyl-N-{3-[3-(thiophene-2-carbonyl)-pyrazolo[1,5-a]pyrimidin-7-yl]-phenyl}-vinylsulfonamide]",99.5,41.2,88.69
"CC(C)S(=O)(=O)N(C)c1cccc(-c2ccnc3c(C#N)cnn23)c1 [Example 34, N-[3-(3-cyano-pyrazolo[1,5-a]pyrimidin-7-yl)-phenyl]-N-methyl-2-propanesulfonamide]",87.6,6.9,92.58
"C#CCN(c1cccc(-c2ccnc3c(C(=O)c4cccs4)cnn23)c1)S(C)(=O)=O [Example 16, N-2-propynyl-N-{3-[3-(thiophene-2-carbonyl)-pyrazolo[1,5-a]pyrimidin-7-yl]-phenyl}-methanesulfonamide]",–,–,95.36
"C#CCN(c1cccc(-c2ccnc3c(C#N)cnn23)c1)S(=O)(=O)C(C)C [Example 30, N-[3-(3-cyano-pyrazolo[1,5-a]pyrimidin-7-yl)-phenyl]-N-2-propynyl-propane-2-sulfonamide]",73.3,0,94.86
"CCN(c1cccc(-c2ccnc3c(C(=O)c4ccc(OC)cc4)cnn23)c1)S(C)(=O)=O [Example 58, N-ethyl-N-{3-[3-(4-methoxybenzoyl)-pyrazolo[1,5-a]pyrimidin-7-yl]-phenyl}-methanesulfonamide]",93.8,24,93.31
"CC(C)S(=O)(=O)N(C)c1cccc(-c2ccnc3c(C(=O)c4cccs4)cnn23)c1 [Example 23, N-methyl-N-{3-[3-(thiophene-2-carbonyl)-pyrazolo[1,5-a]pyrimidin-7-yl]-phenyl}-2-propane-sulfonamide]",93.8,45.5,94.57
"Cc1ccc(C(=O)c2cnn3c(-c4cccc(N(C)S(C)(=O)=O)c4)ccnc23)cc1 [Example 63, N-methyl-N-{3-[3-(4-methylbenzoyl)-pyrazolo[1,5-a]pyrimidin-7-yl]-phenyl}-methanesulfonamide]",91.3,0,95.32
"CCCN(c1cccc(-c2ccnc3c(C(=O)c4cccs4)cnn23)c1)S(=O)(=O)CC [Example 17, N-propyl-N-{3-[3-(thiophene-2-carbonyl)-pyrazolo[1,5-a]pyrimidin-7-yl]-phenyl}-ethanesulfonamide]",74.5,0,94.21
"CN(c1cccc(-c2ccnc3c(C(=O)c4ccccc4)cnn23)c1)S(C)(=O)=O [Example 69, N-methyl-N-{3-[3-(benzoyl)-pyrazolo[1,5-a]pyrimidin-7-yl]-phenyl}-methanesulfonamide]",99,36.7,96.90
"CCN(c1cccc(-c2ccnc3c(C#N)cnn23)c1)S(=O)(=O)C(C)C [Example 35, N-[3-(3-cyano-pyrazolo[1,5-a]pyrimidin-7-yl)-phenyl]-N-ethyl-2-propanesulfonamide]",86.5,24.5,92.55
"N#Cc1cnn2c(-c3cccc(N4CCCS4(=O)=O)c3)ccnc12 [Example 33, 7-(3-(2-isothiazolidinyl-1,1-dioxide)-phenyl)-3-cyano-pyrazolo[1,5-a]pyrimidine]",45.2,0,77.58
"CCN(c1cccc(-c2ccnc3c(C(=O)c4ccccn4)cnn23)c1)S(C)(=O)=O [Example 40, N-ethyl-N-{3-[3-(pyridin-2-carbonyl)-pyrazolo[1,5-a]pyrimidin-7-yl]-phenyl}-methanesulfonamide]",99.5,47.3,94.32
"CCS(=O)(=O)N(C)c1cccc(-c2ccnc3c(C(=O)c4cccs4)cnn23)c1 [Example 20, N-methyl-N-{3-[3-(thiophene-2-carbonyl)-pyrazolo[1,5-a]pyrimidin-7-yl]-phenyl}-ethanesulfonamide]",97.7,40.3,95.23
"CCCN(c1cccc(-c2ccnc3c(C#N)cnn23)c1)S(=O)(=O)C(C)C [Example 37, N-[3-(3-cyano-pyrazolo[1,5-a]pyrimidin-7-yl)-phenyl]-N-propyl-2-propanesulfonamide]",40.2,0,92.13
"CCN(c1cccc(-c2ccnc3c(C#N)cnn23)c1)S(C)(=O)=O [Example 5, N-[3-(3-cyano-pyrazolo[1,5-a]pyrimidin-7-yl)-phenyl]-N-ethyl-methanesulfonamide]",–,–,80.91
"CN(c1cccc(-c2ccnc3c(C(=O)c4cccs4)cnn23)c1)S(=O)(=O)c1cccc(C#N)c1 [Example 83, N-methyl-N-{3-[3-(thiophene-2-carbonyl)-pyrazolo[1,5-a]pyrimidin-7-yl]-phenyl}-3-cyanobenzene-sulfonamide]",94.4,39.1,53.38
"CN(c1cccc(-c2ccnc3c(C(=O)c4cccs4)cnn23)c1)S(=O)(=O)CC(F)(F)F [Example 76, N-methyl-N-{3-[3-(thiophene-2-carbonyl)-pyrazolo[1,5-a]pyrimidin-7-yl]-phenyl}-2,2,2-trifluoroethane-sulfonamide]",41.7,0,78.36
"CN(c1cccc(-c2ccnc3c(C(=O)c4ccccn4)cnn23)c1)S(C)(=O)=O [Example 39, N-methyl-N-{3-[3-(pyridin-2-carbonyl)-pyrazolo[1,5-a]pyrimidin-7-yl]-phenyl}-methanesulfonamide]",96.6,23.3,95.28
"CCN(C(C)=O)c1cccc(-c2ccnc3c(C#N)cnn23)c1 [Zaleplon, reference compound]",–,–,47.17
"CCN(c1cccc(-c2ccnc3c(C(=O)c4cccs4)cnn23)c1)S(C)(=O)=O [Example 6, N-ethyl-N-{3-[3-(thiophene-2-carbonyl)-pyrazolo[1,5-a]pyrimidin-7-yl]-phenyl}-methanesulfonamide]",–,–,66.55
